We go through one molecule from patent publication US20080221110A1 (priority 2005, published 2008).

This assay has as its system a strain of at least one of the organisms listed (panel of Gram-positive organisms and Gram-negative strains). Put plainly: organism not typed. It counts as cell-based. The note with it: read-out: MIC (minimum inhibitory concentration).

Regarding `O=c1ccc2ccc(F)c3c2n1CC3CN1CCC(NC[C@H]2COc3ccnnc3O2)CC1` (mixture of isomers) [Example 62, (1R/S)-1-[(4-{[(7S)-6,7-dihydro[1,4]dioxino[2,3-c]pyridazin-7-ylmethyl]amino}-1-piperidinyl)methyl]-9-fluoro-1,2-dihydro-4H-pyrrolo[3,2,1-ij]quinolin-4-one], the MIC was at most 4 µg/mL.
